Assay [1] deals with Human colon tumor cells (Colo205). The experiment in a line: Cell growth inhibition assay (CellTiter-Glo), Colo205. It counts as cell-based. On the procedure: Human colon tumor cells (Colo205) were cultured in RPMI (Mediatech 50-020-PB) containing 10% FBS and 1% penicillin-streptomycin.
The next day, compounds were diluted as follow: For 96-well assays, 13.5 μL of compound in DMSO were diluted using nine (9) serial 1:3 dilutions of 4.5 μL in 9 μL of DMSO. Medium (270 μL/well of RPMI with 10% FBS and 1% penicillin-streptomycin) was added to the plates. Aliquots (7 μL) were added to cells in the final assay giving a final DMSO concentration of 0.2%. For 384-well assays, 15 μL of compound in DMSO were diluted using nine (9) serial 1:3 dilutions of 5 μL in 10 μL of DMSO, followed by a further dilution of 5 μL of compound with 95 μL of medium, of which 2 μL were added to cells in the final assay giving a final DMSO concentration of 0.2%. Cells were incubated at 37° C., 5% CO2 for 3 days.
Total ATP was measured (as a surrogate estimate of cell number) using CellTiter-Glo® reagent (Promega G7571). Briefly, plates were removed from the incubator and allowed to equilibrate to room temperature for 30 minutes. CellTiter-Glo® (25 μL or 55 μL for 384-well or 96-well assays, respectively) reagent was added to each well and plates were shaken on an orbital plate shaker for 2 minutes. Plates were incubated without shaking for a further 30 minutes and read on an LJL Analyst GT reader in luminometer mode with an integration time of 0.5 seconds per well. Percent inhibition of cell growth was calculated relative to DMSO vehicle-treated control wells.

Assay [2] deals with T1, BRAFV600E full-length (amino acids 2-766) (Homo sapiens, UniProt P15056, V600E).
T1 construct: His6-tagged BRAFV600E full-length (amino acids 2-766); His6; made in house; host or cells: baculovirus expression system (insect cells)
The experiment in a line: B-Raf Accelerated MEK ATPase assay (BRAMA). It counts as biochemical. To be noted: categorized; for IC50: Table 1b, read-out: B-Raf pIC50 (converted). The gist of the method:
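Coupled-enzyme readout: ADP generated by MEK-mediated ATP hydrolysis, uncoupled from ERK phosphorylation, is linked to NADH oxidation through pyruvate kinase and lactate dehydrogenase.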

The subject of assay [3] is Human melanoma cancer cells (SK-MEL-28). The experiment in a line: Cell growth inhibition assay (CellTiter-Glo), SK-MEL-28. The assay is classed as cell-based. A general note: ATP-based viability assays read luminescence as a measure of living cells.
Setting [4] is: COLO 205, 72 h, Table 2a, 3 days incubation, read-out: Activity in Colo205 Tumor Cells.
The mark [5] stands for this setting: COLO 205, Table 2b, later runs, average for the one or more runs, categorized, read-out: IC50 for Colo205.
Setting [6] is: B-Raf Activity, Table 1a, highest pIC50 for the one or more runs.
Where [7] appears, read: B-Raf pIC50, Table 1b, later runs, average pIC50 for the one or more runs.
Setting [8] is: SK-MEL-28, 72 h, Table 3a, 3 days incubation, read-out: Activity in SK-MEL-28 Tumor Cells.
Setting [9] is: SK-MEL-28, Table 3b, later runs, average for the one or more runs, categorized, read-out: IC50 for SK-MEL-28.
[10] abbreviates: later runs, average pIC50 for the one or more runs.

pIC50: −log10 of the molar value. Structures can show the parent of a compound that is named as a salt. Where two headings read alike, the source gives them in different places.

T1 sequence (P15056 2-766 V600E): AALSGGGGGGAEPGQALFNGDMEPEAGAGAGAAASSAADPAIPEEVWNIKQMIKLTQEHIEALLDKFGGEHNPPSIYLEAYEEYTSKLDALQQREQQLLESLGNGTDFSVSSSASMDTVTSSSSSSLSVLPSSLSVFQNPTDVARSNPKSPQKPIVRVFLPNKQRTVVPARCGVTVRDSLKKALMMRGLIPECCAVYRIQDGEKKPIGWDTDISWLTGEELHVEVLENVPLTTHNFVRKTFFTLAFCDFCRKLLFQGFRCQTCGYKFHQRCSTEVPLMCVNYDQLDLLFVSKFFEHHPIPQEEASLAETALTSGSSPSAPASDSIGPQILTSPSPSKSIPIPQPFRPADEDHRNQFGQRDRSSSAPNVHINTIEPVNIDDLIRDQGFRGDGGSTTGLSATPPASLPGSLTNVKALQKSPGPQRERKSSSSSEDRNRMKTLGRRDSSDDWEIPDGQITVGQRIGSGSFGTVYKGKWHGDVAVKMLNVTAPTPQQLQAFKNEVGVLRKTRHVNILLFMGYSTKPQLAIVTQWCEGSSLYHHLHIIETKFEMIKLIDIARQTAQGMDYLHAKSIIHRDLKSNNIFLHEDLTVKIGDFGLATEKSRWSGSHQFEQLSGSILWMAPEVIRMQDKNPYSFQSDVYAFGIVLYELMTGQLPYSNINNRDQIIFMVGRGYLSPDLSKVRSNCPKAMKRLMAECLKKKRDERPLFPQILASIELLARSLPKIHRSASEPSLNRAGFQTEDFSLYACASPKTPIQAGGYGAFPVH

Consider `CS(=O)(=O)CCNc1nccc(-c2sc(N3CCCC3)nc2-c2cccc(NS(=O)(=O)c3c(F)cccc3F)c2)n1` [Example 32, 2,6-Difluoro-N-{3-[5-(2-{[2-(methylsulfonyl)ethyl]amino}-4-pyrimidinyl)-2-(1-pyrrolidinyl)-1,3-thiazol-4-yl]phenyl}benzenesulfonamide], for which the pIC50 in assay [1] (setting [4]) was > 7.00; in assay [1] (setting [5]), > 7.00; in assay [2] (setting [6]), > 7.00; in assay [2] (setting [7]), ≥ 8.50; in assay [3] (setting [8]), > 7.00; in assay [3] (setting [9]), > 7.00.

In the case of `CC(C)c1nc(-c2cccc(NS(=O)(=O)c3cccnc3)c2)c(-c2ccnc(NCCS(C)(=O)=O)n2)s1` [Example 33, N-{3-[2-(1-Methylethyl)-5-(2-{[2-(methylsulfonyl)ethyl]amino}-4-pyrimidinyl)-1,3-thiazol-4-yl]phenyl}-3-pyridinesulfonamide], the pIC50 was > 7.00 in assay [1] (setting [4]); > 7.00 in assay [1] (setting [5]); > 7.00 in assay [2] (setting [6]); ≥ 8.50 in assay [2] (setting [7]); > 7.00 in assay [3] (setting [8]); > 7.00 in assay [3] (setting [9]).

For `CC(C)c1nc(-c2ccc(F)c(NS(=O)(=O)c3ccco3)c2)c(-c2ccnc(NCCS(C)(=O)=O)n2)s1` [Example 34, N-{2-Fluoro-5-[2-(1-methylethyl)-5-(2-{[2-(methylsulfonyl)ethyl]amino}-4-pyrimidinyl)-1,3-thiazol-4-yl]phenyl}-2-furansulfonamide trifluoroacetic acid salt], the pIC50 in assay [1] (setting [4]) is < 6.00; in assay [1] (setting [5]), 5.00 to 6.00; in assay [2] (setting [6]), > 7.00; in assay [3] (setting [8]) it was < 6.00; in assay [3] (setting [9]), 5.00 to 6.00. In addition, the IC50 in assay [2] (setting [10]) was 3.16 to 31.6 nM.

Consider `CC(C)c1nc(-c2cccc(NS(=O)(=O)c3cnn(C)c3)c2)c(-c2ccnc(NCCS(C)(=O)=O)n2)s1` [Example 35, 1-Methyl-N-{3-[2-(1-methylethyl)-5-(2-{[2-(methylsulfonyl)ethyl]amino}-4-pyrimidinyl)-1,3-thiazol-4-yl]phenyl}-1H-pyrazole-4-sulfonamide trifluoroacetic acid salt], for which the pIC50 in assay [1] (setting [4]) is 6.00 to 7.00; in assay [1] (setting [5]), 6.00 to 7.00; in assay [2] (setting [6]), > 7.00; in assay [3] (setting [8]) it was 6.00 to 7.00; in assay [3] (setting [9]), 6.00 to 7.00. Moreover, in assay [2] (setting [10]), the IC50 is 3.16 to 31.6 nM.

For `CC(C)c1nc(-c2ccc(F)c(NS(=O)(=O)c3cn(C)cn3)c2)c(-c2ccnc(NCCCS(C)(=O)=O)n2)s1` [Example 36, N-{2-Fluoro-5-[2-(1-methylethyl)-5-(2-{[3-(methylsulfonyl)propyl]amino}-4-pyrimidinyl)-1,3-thiazol-4-yl]phenyl}-1-methyl-1H-imidazole-4-sulfonamide], the pIC50 in assay [1] (setting [4]) was < 6.00; in assay [2] (setting [6]) it was 6.00 to 7.00; in assay [2] (setting [7]), 6.00 to 7.50; in assay [3] (setting [8]), < 6.00.

For `CC(C)c1nc(-c2cccc(NS(=O)(=O)N3CCOCC3)c2)c(-c2ccnc(NCCS(C)(=O)=O)n2)s1` [Example 37, N-{3-[2-(1-Methylethyl)-5-(2-{[2-(methylsulfonyl)ethyl]amino}-4-pyrimidinyl)-1,3-thiazol-4-yl]phenyl}-4-morpholinesulfonamide trifluoroacetic acid salt], the pIC50 in assay [1] (setting [4]) was 6.00 to 7.00; in assay [1] (setting [5]), 6.00 to 7.00; in assay [2] (setting [6]), 6.00 to 7.00; in assay [2] (setting [7]) it was 6.00 to 7.50; in assay [3] (setting [8]) it was 6.00 to 7.00; in assay [3] (setting [9]), 6.00 to 7.00.

As for `COc1ccc(F)cc1S(=O)(=O)Nc1cccc(-c2nc(C(C)C)sc2-c2ccnc(NCC(C)C)n2)c1` [Example 38, 5-Fluoro-N-[3-(2-(1-methylethyl)-5-{2-[(2-methylpropyl)amino]-4-pyrimidinyl}-1,3-thiazol-4-yl)phenyl]-2-(methyloxy)benzenesulfonamide], the pIC50 was < 6.00 in assay [1] (setting [4]); 5.00 to 6.00 in assay [1] (setting [5]); 6.00 to 7.00 in assay [2] (setting [6]); 6.00 to 7.50 in assay [2] (setting [7]); < 6.00 in assay [3] (setting [8]); 5.00 to 6.00 in assay [3] (setting [9]).

`Cc1ccccc1S(=O)(=O)Nc1cccc(-c2nc(C(C)C)sc2-c2ccnc(NCC(C)C)n2)c1F` [Example 39, N-[2-Fluoro-3-(2-(1-methylethyl)-5-{2-[(2-methylpropyl)amino]-4-pyrimidinyl}-1,3-thiazol-4-yl)phenyl]-2-methylbenzenesulfonamide]: the pIC50 in assay [1] (setting [4]) is 6.00 to 7.00; in assay [1] (setting [5]) it was 6.00 to 7.00; in assay [2] (setting [6]) it was > 7.00; in assay [3] (setting [8]), 6.00 to 7.00; in assay [3] (setting [9]), 6.00 to 7.00. Moreover, in assay [2] (setting [10]), the IC50 is 3.16 to 31.6 nM.

For `CC(C)c1nc(-c2cccc(NS(=O)(=O)c3nccs3)c2F)c(-c2ccnc(NC3CCN(S(C)(=O)=O)CC3)n2)s1` [Example 40, N-{2-Fluoro-3-[2-(1-methylethyl)-5-(2-{[1-(methylsulfonyl)-4-piperidinyl]amino}-4-pyrimidinyl)-1,3-thiazol-4-yl]phenyl}-1,3-thiazole-2-sulfonamide], the pIC50 in assay [1] (setting [4]) is 6.00 to 7.00; in assay [1] (setting [5]) it was 6.00 to 7.00; in assay [2] (setting [6]), > 7.00; in assay [2] (setting [7]), ≥ 8.50; in assay [3] (setting [8]), 6.00 to 7.00; in assay [3] (setting [9]) it was 6.00 to 7.00.

As for `CS(=O)(=O)N1CCC(Nc2nccc(-c3sc(N4CCOCC4)nc3-c3cccc(NS(=O)(=O)c4ccco4)c3F)n2)CC1` [Example 41, N-{2-Fluoro-3-[5-(2-{[1-(methylsulfonyl)-4-piperidinyl]amino}-4-pyrimidinyl)-2-(4-morpholinyl)-1,3-thiazol-4-yl]phenyl}-2-furansulfonamide], the pIC50 is > 7.00 in assay [1] (setting [4]); > 7.00 in assay [1] (setting [5]); > 7.00 in assay [2] (setting [6]); ≥ 8.50 in assay [2] (setting [7]); > 7.00 in assay [3] (setting [8]); 6.00 to 7.00 in assay [3] (setting [9]).

For `CC(C)CNc1nccc(-c2sc(C(C)C)nc2-c2cccc(NS(=O)(=O)c3cccnc3)c2F)n1` [Example 42, N-[2-Fluoro-3-(2-(1-methylethyl)-5-{2-[(2-methylpropyl)amino]-4-pyrimidinyl}-1,3-thiazol-4-yl)phenyl]-3-pyridinesulfonamide], the pIC50 in assay [1] (setting [4]) is > 7.00; in assay [1] (setting [5]) it was > 7.00; in assay [2] (setting [6]), > 7.00; in assay [2] (setting [7]), ≥ 8.50; in assay [3] (setting [8]), > 7.00; in assay [3] (setting [9]), > 7.00.

Take `CC(C)CNc1nccc(-c2sc(N3CCOCC3)nc2-c2cccc(NS(=O)(=O)c3ccco3)c2F)n1` [Example 43, N-{2-fluoro-3-[5-{2-[(2-methylpropyl)amino]-4-pyrimidinyl}-2-(4-morpholinyl)-1,3-thiazol-4-yl]phenyl}-2-furansulfonamide]: the pIC50 in assay [1] (setting [4]) is 6.00 to 7.00; in assay [1] (setting [5]), 6.00 to 7.00; in assay [2] (setting [6]) it was > 7.00; in assay [2] (setting [7]), ≥ 8.50; in assay [3] (setting [8]), 6.00 to 7.00; in assay [3] (setting [9]), 6.00 to 7.00.

For the compound `COc1c(NS(=O)(=O)c2c(F)cccc2F)cccc1-c1nc(C(C)C)sc1-c1ccnc(NCC(C)C)n1` [Example 44, 2,6-Difluoro-N-[3-(2-(1-methylethyl)-5-{2-[(2-methylpropyl)amino]-4-pyrimidinyl}-1,3-thiazol-4-yl)-2-(methyloxy)phenyl]benzenesulfonamide], the pIC50 in assay [1] (setting [4]) is < 6.00; in assay [1] (setting [5]), 5.00 to 6.00; in assay [2] (setting [6]), > 7.00; in assay [3] (setting [8]), < 6.00; in assay [3] (setting [9]), 5.00 to 6.00. In addition, the IC50 in assay [2] (setting [10]) is 3.16 to 31.6 nM.

With `CC(C)CNc1nccc(-c2sc(N3CCOCC3)nc2-c2cccc(NS(=O)(=O)c3cccnc3)c2F)n1` [Example 45, N-{2-Fluoro-3-[5-{2-[(2-methylpropyl)amino]-4-pyrimidinyl}-2-(4-morpholinyl)-1,3-thiazol-4-yl]phenyl}-3-pyridinesulfonamide], the pIC50 is 6.00 to 7.00 in assay [1] (setting [4]); 6.00 to 7.00 in assay [1] (setting [5]); > 7.00 in assay [2] (setting [6]); ≥ 8.50 in assay [2] (setting [7]); 6.00 to 7.00 in assay [3] (setting [8]); 6.00 to 7.00 in assay [3] (setting [9]).
